Like-named read-outs stand apart in the source and are kept apart here.
Test system: PopD F7 M-833 resistant clone (PfSTART1 N309K)
Test: Growth inhibition assay (72 h, LDH activity)
Type: cell-based, Plasmodium falciparum
Experimental: The drug was then removed, and parasites were allowed to recover. Another cycle of drug treatment (3 μM M-833) was then resumed. The resistant lines were cloned out by limiting dilution (diluting the culture into a 96-well plate to achieve an average of ~0.3 parasites per well), prior to growth inhibition assays and genomic DNA (gDNA) extraction (DNeasy Blood and Tissue kit (Qiagen)[18].
Parasite growth assays with inhibitory compounds were performed as per[11] and are fully described in the Supplementary Information.
Molecular biology and transfection of P. falciparum: CRISPR method.
The full 5’ homology region of pfstart1 (either WT, N309K or N330K) was amplified from pPfSTART1-HA-2A-Neo-glmS with the same 5’ BglII primer and a new 3’ primer that replaced with PstI with SpeI and introduced a stop codon. The PCR product was then digested with BglII and SpeI and inserted into similarly digested p1.2 parasite vector2. The p1.2 vector had previously been inserted with a homology region amplified from the 3’ end of the pfstart1 gene (3’HB) to form a second homology block for double recombination. The primers used to amplify 3’HB are listed primers listed in […]
60 μg of p1.2-PfSTART1(WT/N309K/N330K) plasmid was linearised with KasI, precipitated in 3 M sodium acetate and ethanol (70% final concentration) overnight at -20°C. The DNA pellet was washed in cold 70% ethanol and resuspended in cytomix 3.
50 μ M of crRNA ( Table S 2) and 50 μM of tracRNA (Integrated DNA Technologies) were allowed to form a duplex (5 min at 95°C), and Cas9 enzyme (Integrated DNA Technologies) was added, and incubated for 20 min at room temperature 4. This crRNA -tracRNA -Cas9 mix was added to each DNA preparation and transfected to 3D7 ring parasites using the Bio -Rad Gene Pulser at 310 V and 950 μF.
Parasites containing the transfected DNA were selected using 2.5 nM WR99210 (Jacobus). Parasites lines were cloned using limiting dilution. Correct integration was tested by PCR (using primer START_5’UTR.F and START_Int.R1 , Table S 2), and sequencing was done using the primers START_3F and START_Int.R2 (Table S 2).
Growth inhibition assays. Synchronised ring-stage parasites (0.3-0.6% parasitemia, 2% haematocrit) were grown for 72 h in a serial-dilution of the compound under […]
and compound 4. Note that M-833 was first purchased from MolPort (MolPort -002-267-916) then made in-house at WEHI: the differences observed in EC50s across experiments are attributed to the different batches of M -833. For some experiments, 0, 0.25 or 2.5 mM of glucosamine (GlcN) was also added. Experiments were set up in technical duplicates or triplicates. Following a freeze -thaw cycle, lactate dehydrogenase (LDH) activity was assessed as an indicator of parasite growt h 5. 30 μL of parasite culture was incubated for 30 min in the dark with 75 μL Malstat mixture (0.1 M Tris pH 9.0, 20 g/L lactic acid, pH 7.5, 0.2% Triton-X100, 0.5 g/L acetylpyridine adenine dinucleotide (APAD, Sigma), 200 μg/mL nitroblue tetrazolium (NBT; Sigma), 1 μg/mL phenozine ethosulfate (PES; Sigma)). Absorbance was then measured at 650 nm, transformed using the formula below, plotted against the logarithm of the concentrations, and a non-linear regression (log(inhibitor) vs. response, variable slope) was calculated using GraphPad Prism to assess the half-inhibitory […]
Growth inhibition % = (1 − average(sample)− average(uRBC)) ∗ 100 […]
The DMSO samples were also used to assess growth of parasite in the presence of 0.25 and 2.5 mM GlcN (normalised by DMSO in 0 mM GlcN).
Egress, invasion & recovery assay. To measure egress, invasion and follow up recovery in the presence of different compounds, we adapted the method developed in6, using Hyp1-Nluc parasites7. These parasites episomally express the exported PEXEL protein Hyp1 (PF3D7_0113300) tagged with a NanoLuc luciferase (NLuc) and were selected with 2.5 nM WR99210 (Jacobus). Highly synchronised schizonts were […]

Cc1cc(Cl)c(S(=O)(=O)N2CCCC2)cc1OCC(=O)NC1CCCCC1 [M-833]
Normalised to DMSO (M-833 0.0390625 uM, Pop D-F7 replicate 1): 102.746 | Normalised to DMSO (M-833 0.0390625 uM, Pop D-F7 replicate 3): 104.013 | Normalised to DMSO (M-833 0.078125 uM, Pop D-F7 replicate 1): 103.501 | Normalised to DMSO (M-833 0.078125 uM, Pop D-F7 replicate 3): 102.629 | Normalised to DMSO (M-833 0.15625 uM, Pop D-F7 replicate 1): 104.635 | Normalised to DMSO (M-833 0.15625 uM, Pop D-F7 replicate 3): 103.875 | Normalised to DMSO (M-833 0.3125 uM, Pop D-F7 replicate 1): 106.297 | Normalised to DMSO (M-833 0.3125 uM, Pop D-F7 replicate 3): 100.415 | Normalised to DMSO (M-833 0.625 uM, Pop D-F7 replicate 1): 98.8413 | Normalised to DMSO (M-833 0.625 uM, Pop D-F7 replicate 3): 99.3081 | Normalised to DMSO (M-833 1.25 uM, Pop D-F7 replicate 1): 89.7985 | Normalised to DMSO (M-833 1.25 uM, Pop D-F7 replicate 3): 89.8985 | Normalised to DMSO (M-833 2.5 uM, Pop D-F7 replicate 1): 74.9622 | Normalised to DMSO (M-833 2.5 uM, Pop D-F7 replicate 3): 59.8708 | Normalised to DMSO (M-833 5 uM, Pop D-F7 replicate 1): 50.7053 | Normalised to DMSO (M-833 5 uM, Pop D-F7 replicate 3): 43.6808 | Normalised to DMSO (M-833 10 uM, Pop D-F7 replicate 1): 28.7406 | Normalised to DMSO (M-833 10 uM, Pop D-F7 replicate 3): 39.9446 | inhibition at 0.0390625 µM (Plasmodium falciparum, M-833 0.0390625 uM, Pop D-F7 replicate 1, read-out: % Inhibition): -2.75% | inhibition at 0.0390625 µM (Plasmodium falciparum, M-833 0.0390625 uM, Pop D-F7 replicate 3, read-out: % Inhibition): -4.01% | inhibition at 0.078125 µM (Plasmodium falciparum, M-833 0.078125 uM, Pop D-F7 replicate 1, read-out: % Inhibition): -3.5% | inhibition at 0.078125 µM (Plasmodium falciparum, M-833 0.078125 uM, Pop D-F7 replicate 3, read-out: % Inhibition): -2.63% | inhibition at 0.15625 µM (Plasmodium falciparum, M-833 0.15625 uM, Pop D-F7 replicate 1, read-out: % Inhibition): -4.63% | inhibition at 0.15625 µM (Plasmodium falciparum, M-833 0.15625 uM, Pop D-F7 replicate 3, read-out: % Inhibition): -3.87% | inhibition at 0.3125 µM (Plasmodium falciparum, M-833 0.3125 uM, Pop D-F7 replicate 1, read-out: % Inhibition): -6.3% | inhibition at 0.3125 µM (Plasmodium falciparum, M-833 0.3125 uM, Pop D-F7 replicate 3, read-out: % Inhibition): -0.415% | inhibition at 0.625 µM (Plasmodium falciparum, M-833 0.625 uM, Pop D-F7 replicate 1, read-out: % Inhibition): 1.16% | inhibition at 0.625 µM (Plasmodium falciparum, M-833 0.625 uM, Pop D-F7 replicate 3, read-out: % Inhibition): 0.692% | inhibition at 1.25 µM (Plasmodium falciparum, M-833 1.25 uM, Pop D-F7 replicate 1, read-out: % Inhibition): 10.2% | inhibition at 1.25 µM (Plasmodium falciparum, M-833 1.25 uM, Pop D-F7 replicate 3, read-out: % Inhibition): 10.1% | inhibition at 2.5 µM (Plasmodium falciparum, M-833 2.5 uM, Pop D-F7 replicate 1, read-out: % Inhibition): 25% | inhibition at 2.5 µM (Plasmodium falciparum, M-833 2.5 uM, Pop D-F7 replicate 3, read-out: % Inhibition): 40.1% | inhibition at 5 µM (Plasmodium falciparum, M-833 5 uM, Pop D-F7 replicate 1, read-out: % Inhibition): 49.3% | inhibition at 5 µM (Plasmodium falciparum, M-833 5 uM, Pop D-F7 replicate 3, read-out: % Inhibition): 56.3% | inhibition at 10 µM (Plasmodium falciparum, M-833 10 uM, Pop D-F7 replicate 1, read-out: % Inhibition): 71.3% | inhibition at 10 µM (Plasmodium falciparum, M-833 10 uM, Pop D-F7 replicate 3, read-out: % Inhibition): 60.1% | inhibition at 0.0390625 µM (Plasmodium falciparum, Pop D-F7 replicate 1, M-833 0.0390625 uM): -0.465% | inhibition at 0.078125 µM (Plasmodium falciparum, Pop D-F7 replicate 1, M-833 0.078125 uM): -0.401% | inhibition at 0.15625 µM (Plasmodium falciparum, Pop D-F7 replicate 1, M-833 0.15625 uM): 3.58% | inhibition at 0.3125 µM (Plasmodium falciparum, Pop D-F7 replicate 1, M-833 0.3125 uM): 2.21% | inhibition at 0.625 µM (Plasmodium falciparum, Pop D-F7 replicate 1, M-833 0.625 uM): 8.79% | inhibition at 1.25 µM (Plasmodium falciparum, Pop D-F7 replicate 1, M-833 1.25 uM): 10.1% | inhibition at 2.5 µM (Plasmodium falciparum, Pop D-F7 replicate 1, M-833 2.5 uM): 29% | inhibition at 5 µM (Plasmodium falciparum, Pop D-F7 replicate 1, M-833 5 uM): 45.3% | inhibition at 10 µM (Plasmodium falciparum, Pop D-F7 replicate 1, M-833 10 uM): 71.1% | EC50 (Plasmodium falciparum, read-out: EC50 (95% confidence interval)): 2.97 µM | Normalised to DMSO (Pop D-F7 replicate 1, M-833 0.0390625 uM): 100.465 | Normalised to DMSO (Pop D-F7 replicate 1, M-833 0.078125 uM): 100.401 | Normalised to DMSO (Pop D-F7 replicate 1, M-833 0.15625 uM): 96.4217 | Normalised to DMSO (Pop D-F7 replicate 1, M-833 0.3125 uM): 97.7856 | Normalised to DMSO (Pop D-F7 replicate 1, M-833 0.625 uM): 91.2067 | Normalised to DMSO (Pop D-F7 replicate 1, M-833 1.25 uM): 89.8748 | Normalised to DMSO (Pop D-F7 replicate 1, M-833 2.5 uM): 70.9884 | Normalised to DMSO (Pop D-F7 replicate 1, M-833 5 uM): 54.6534 | Normalised to DMSO (Pop D-F7 replicate 1, M-833 10 uM): 28.9313
